≈ marks a conversion by molar mass, not a printed value.
Tests used:
Type in all cases: cell-based
[1] = test system: Haemophilus Influenzae 351GR6; assay: Antibacterial activity on gram-negative strains; conditions: result in words
Method: (§1) On a préparé une série de tubes dans lesquels on répartit une même quantité de milieu nutritif stérile. On distribue dans chaque tube des quantités croissantes du produit à étudier, puis chaque tube est ensemencé avec une souche bactérienne. Après incubation de vingt-quatre heures à l'étuve à 37°C, l'inhibition de la croissance est appréciée par transillumination de ce qui permet de déterminer les concentrations minimales inhibitrices (C.M.I.) exprimées en microgrammes/cm^3.

[2] = test system: Haemophilus Influenzae 351CA1; assay: Antibacterial activity on gram-negative strains; conditions: result in words
Method: as §1

[3] = test system: Haemophilus Influenzae 351CB12; assay: Antibacterial activity on gram-negative strains; conditions: result in words
Method: as §1

[4] = test system: Haemophilus Influenzae 351HT3; assay: Antibacterial activity on gram-negative strains; conditions: result in words
Method: as §1

[5] = test system: Streptococcus agalactiae groupe B 02B1HT1; assay: Dilution method in liquid medium (MIC); conditions: incubation 24 h at 37°C, read-out: concentrations minimales inhibitrices (C.M.I.)
Method: (§2) Méthode des dilutions en milieu liquide
as §1

[6] = test system: Streptococcus sp groupe G 02G0GR5; assay: Dilution method in liquid medium (MIC); conditions: incubation 24 h at 37°C, read-out: concentrations minimales inhibitrices (C.M.I.)
Method: as §2, §1

[7] = test system: Staphylococcus aureus 011UC4; assay: Dilution method in liquid medium (MIC); conditions: incubation 24 h at 37°C, read-out: concentrations minimales inhibitrices (C.M.I.)
Method: as §2, §1

[8] = test system: Streptococcus pyogenes groupe A 02A1UC1; assay: Dilution method in liquid medium (MIC); conditions: incubation 24 h at 37°C, read-out: concentrations minimales inhibitrices (C.M.I.)
Method: as §2, §1

[9] = test system: Streptococcus faecium groupe D 02D3HT1; assay: Dilution method in liquid medium (MIC); conditions: Enterococcus faecium, incubation 24 h at 37°C, read-out: concentrations minimales inhibitrices (C.M.I.)
Method: as §2, §1

[10] = test system: Staphylococcus epidermidis 012GO11I; assay: Dilution method in liquid medium (MIC); conditions: incubation 24 h at 37°C, read-out: concentrations minimales inhibitrices (C.M.I.)
Method: as §2, §1

[11] = test system: Streptococcus faecalis groupe D 02D2UC1; assay: Dilution method in liquid medium (MIC); conditions: Enterococcus faecalis, incubation 24 h at 37°C, read-out: concentrations minimales inhibitrices (C.M.I.)
Method: as §2, §1

[12] = test system: Streptococcus mitis 02mitGR16I; assay: Dilution method in liquid medium (MIC); conditions: incubation 24 h at 37°C, read-out: concentrations minimales inhibitrices (C.M.I.)
Method: as §2, §1

[13] = test system: Streptococcus agalactiae groupe B 02B1SJ1; assay: Dilution method in liquid medium (MIC); conditions: incubation 24 h at 37°C, read-out: concentrations minimales inhibitrices (C.M.I.)
Method: as §2, §1

[14] = test system: Streptococcus pneumoniae 032UC1; assay: Dilution method in liquid medium (MIC); conditions: incubation 24 h at 37°C, read-out: concentrations minimales inhibitrices (C.M.I.)
Method: as §2, §1

[15] = test system: Streptococcus mitis 02mitCB1; assay: Dilution method in liquid medium (MIC); conditions: incubation 24 h at 37°C, read-out: concentrations minimales inhibitrices (C.M.I.)
Method: as §2, §1

[16] = test system: Staphylococcus aureus 011G025I; assay: Dilution method in liquid medium (MIC); conditions: incubation 24 h at 37°C, read-out: concentrations minimales inhibitrices (C.M.I.)
Method: as §2, §1

| MIC [5] | MIC [6] | MIC [7] | MIC [8] | MIC [9] | MIC [10] | MIC [11] | MIC [12] | MIC [13] | MIC [14] | MIC [15] | MIC [16] | SMILES | activité sur les souches bactériennes à gram⊖ [1] | activité sur les souches bactériennes à gram⊖ [2] | activité sur les souches bactériennes à gram⊖ [3] | activité sur les souches bactériennes à gram⊖ [4] |
| --- | --- | --- | --- | --- | --- | --- | --- | --- | --- | --- | --- | --- | --- | --- | --- | --- |
|  |  |  |  |  |  |  |  |  |  |  |  | CC[C@H]1OC(=O)[C@H](C)C(=O)[C@H](C)[C@@H](O[C@@H]2O[C@H](C)C[C@H](N(C)C)[C@H]2O)[C@](C)(OC)C[C@@H](C)C(=O)[C@H](C)[C@H]2N(COCCOC)C(=O)O[C@]12C [exemple 1, 11,12-didéoxy-3-de[(2,6-didéoxy-3-C-méthyl-3-O-méthyl-alpha-L-ribo-hexopyranosyl)oxy]-6-O-méthyl-3-oxo-12,11-[oxycarbonyl[[(2-méthoxyéthoxy)méthyl]imino]]-érythromycine] | activité intéressante | activité intéressante | activité intéressante | activité intéressante |
| ≤ 0.02 mg/L | ≤ 0.02 mg/L | 0.04 mg/L (≈ 0.0536 µM) | ≤ 0.02 mg/L | ≤ 0.02 mg/L | 0.08 mg/L (≈ 0.107 µM) | ≤ 0.04 mg/L | ≤ 0.02 mg/L | 0.04 mg/L (≈ 0.0536 µM) | ≤ 0.02 mg/L | ≤ 0.02 mg/L | 0.15 mg/L (≈ 0.201 µM) | CC[C@H]1OC(=O)[C@H](C)C(=O)[C@H](C)[C@@H](O[C@@H]2O[C@H](C)C[C@H](N(C)C)[C@H]2O)[C@](C)(OC)C[C@@H](C)C(=O)[C@H](C)[C@H]2N(COCCc3ccccc3)C(=O)O[C@]12C [Ex. 3, 11,12-didéoxy-3-de[(2,6-didéoxy-3-C-méthyl-3-O-méthyl-alpha-L-ribo-hexopyranosyl)oxy]-6-O-méthyl-3-oxo-12,11-[oxycarbonyl[[(2-phényléthoxy)méthyl]imino]]-érythromycine] |  |  |  |  |
| ≤ 0.02 mg/L | ≤ 0.02 mg/L | 0.08 mg/L (≈ 0.0983 µM) | ≤ 0.02 mg/L | ≤ 0.02 mg/L | 0.08 mg/L (≈ 0.0983 µM) | ≤ 0.02 mg/L | ≤ 0.02 mg/L | 0.08 mg/L (≈ 0.0983 µM) | 0.02 mg/L (≈ 0.0246 µM) | ≤ 0.02 mg/L | 0.08 mg/L (≈ 0.0983 µM) | CC[C@H]1OC(=O)[C@H](C)C(=O)[C@H](C)[C@@H](O[C@@H]2O[C@H](C)C[C@H](N(C)C)[C@H]2O)[C@](C)(OC)C[C@@H](C)C(=O)[C@H](C)[C@H]2N(COCCn3cnc(-c4cccnc4)c3)C(=O)O[C@]12C [Ex. 2] |  |  |  |  |

Reference: patent publication EP0946579B1, “NOVEL ERYTHROMYCIN DERIVATIVES, METHOD FOR PREPARING THEM AND THEIR USE AS MEDICINE” (Aventis Pharma S.A., priority 1996, dated 1998)
